# Measured values taken from patent US20140348897A1, “TREATMENT OR REDUCTION OF DENTAL CONDITIONS WITH ASCORBYL ESTERS” (HILL'S PET NUTRITION, INC., priority 2011, published 2014).
# Key:
# dental plaque formation [1] = assay: 24-hour plaque accumulation model, direct application to the teeth with a dental swab; assay type: in vivo, dog; details: dogs
# Method: Ascorbyl palmitate was assessed for its ability to inhibit dental plaque in 24-hour plaque accumulation model, according to a modification of the method of […] et al. ([…] et al. (2007) J. Vet. Dent. 24(1): 14-20), in which the compound to be tested is directly applied to the teeth as a solution using a dental swab as applicator, and the dental plaque accumulation time was set at 24 hours. A solution of ascorbyl palmitate (0.3 g in 10 mL soybean oil) was administered to the cleaned buccal tooth and gingival surfaces of each dog using a dental swab, in such a manner that 0.3 g of ascorbyl palmitate was applied. Control animals were treated with soybean oil alone. Twenty-four hours after application, the accumulation of dental plaque was quantitatively evaluated using a standardized method designated as the gingival contour plaque index (“GCPI”). […] The GCPI uses a scale of 0-100%.
# dental plaque formation [2] = assay: 8-day GCPI dental plaque quantification model, feeding food coated with ascorbyl palmitate solution; assay type: in vivo, dogs; details: four days
# Method: Ascorbyl palmitate was assessed for its ability to inhibit dental plaque formation when applied indirectly, i.e., by feeding animals a pet food composition as described. In this experiment, the 8-day GCPI dental plaques quantification model of […] et al. was used ([…] et al. (2007) J. Vet. Dent. 24(1): 14-20). The teeth of the test animals are cleaned at the beginning of the study, after which the animals were fed either a control food (a commercially-available canine pet food composition) or the same food upon which a solution of ascorbyl palmitate in soybean oil was sprayed to a final concentration (w/w) of 0.1% of the total weight of the food. The food coated with the ascorbyl palmitate solution was fed to dogs over a period of four days and dental plaque accumulation was quantified and compared with their dental plaque accumulation while on the control food. […] The GCPI uses a scale of 0-100%.
smiles,measurement,setting,value
CCCCCCCCCCCCCCCC(=O)OC[C@H](O)[C@H]1OC(=O)C(O)=C1O [ascorbyl palmitate],improvement in plaque accumulation versus soybean oil control,"dental plaque formation [1]; 0.3 g applied directly, 24 hours",27.8%
same,Plaque accumulation average score (GCPI),"dental plaque formation [1]; 0.3 g in 10 mL soybean oil applied to cleaned buccal tooth and gingival surfaces, 24 hours after application, GCPI scale 0-100%, soybean oil control 24.9±9.4",18.9±9%
same,Plaque accumulation average score (GCPI),"dental plaque formation [2]; dogs fed food sprayed with ascorbyl palmitate in soybean oil to 0.1% (w/w) of the food, GCPI scale 0-100%, control food 68.2±11.9",53.7±12.1%
same,improvement in plaque accumulation versus control food,"dental plaque formation [2]; dogs, food with 0.1% (w/w) ascorbyl palmitate",21.3%
